Test results published in US20110263693A1, “CELASTROL, GEDUNIN, AND DERIVATIVES THEREOF AS HSP90 INHIBITORS” (DANA-FARBER CANCER INSTITUTE, INC., priority 2006, published 2011).
Read-outs that look alike come from different tables or passages of the source. Residues, ends and D or L forms follow the SMILES beside them. *: point of attachment. Cbz = O=C(OCc1ccccc1)*

Key:
gedunin signature = test: Connectivity Map query with the gedunin signature; type: cell-based, human; set-up: key to gedunin score (connectivity score): connectivity score, based on Kolmogorov-Smirnov statistic
Text: (§1) Indeed, a major challenge in cell-based chemical biology and chemical genomics is the identification of compounds' targets (Gardner et al., 2003). We hypothesized that gene expression signatures could be used to identify compound action based on the similarity of such compound-induced signatures to signatures of existing drugs of known mechanism. We therefore employed a collection of gene expression profiles of drug-treated cell lines that was developed in our lab, termed the Connectivity Map (Lamb et al., 2006). This database comprises 453 genome-wide Affymetrix expression profiles derived from the treatment of human cell lines with 164 small molecules, primarily FDA-approved drugs. A 6 hr treatment time was chosen in an attempt to capture the primary, and potentially mechanistic, effects of the compounds rather than the downstream phenotypic consequences.
(§2) In order to use the Connectivity Map to gain insight into celastrol and gedunin function, we first defined a gene expression signature of celastrol and gedunin activity. The expression signatures of celastrol and gedunin were derived by expression profiling of RNA from LNCaP cells treated with celastrol (1.25 μM), gedunin (20 μM), and vehicle (DMSO) for 6 hr; signatures were defined using comparative marker selection to identify transcripts that distinguished between the compound- and vehicle-treated profiles by the signal-to-noise (SNR) metric. The enrichment of these signatures in the gene expression profiles of the Connectivity Map database was then assessed using a gene enrichment metric, the connectivity score, based on the Kolmogorov-Smirnov statistic (Lamb et al., 2003).
(§3) The celastrol and gedunin signatures were developed from RMA-processed microarray data from LNCaP cells treated with 1.25 μM celastrol or 20 μM gedunin for 6 hours. Comparative marker selection was used to identify markers that distinguished celastrol- and/or gedunin-treated samples from vehicle-treated samples by the median SNR (Golub et al., 1999). The top 50 markers that increased and decreased relative to vehicle-treated controls were used as the signatures.
(§4) The current version of the Connectivity Map data set (build01) contains genome-wide expression data for 453 treatment and vehicle control pairs, representing 164 distinct small molecules. Cell treatments and Affymetrix profiling were predominantly carried out in MCF7 cells with 6 hr treatments as detailed (Table 4) (Lamb et al., 2006). Enrichment of the induced and repressed genes of a signature within each Connectivity Map treatment profile was estimated with a metric based on the Kolmogorov-Smirnov statistic as described (Lamb et al., 2003, Lamb et al., 2006). Connectivity Map data are available at www.broad.mit.edu/cmap/ and GEO (accession number GSE5258).
(§5) For the celastrol and gedunin signatures, RMA-processed data was filtered and thresholded (min fold change=2, min absolute change=50, floor=10, ceiling=16000). Comparative marker selection (GenePattern) was used to identify markers that distinguished celastrol- and/or gedunin-treated samples from vehicle-treated samples by the median SNR. The top fifty markers that increased and decreased relative to vehicle treated controls were used as the celastrol, gedunin, or joint celastrol/gedunin signatures.
(§6) The current version of The Connectivity Map dataset (build01) contains genome-wide expression data for 453 treatment and vehicle control pairs, representing 164 distinct small molecules. Cell treatments were predominantly carried out in the MCF7 cell line for 6 h as detailed in Table 4. Affymetrix profiling was then carried out as described (Lamb et al., 2006).

celastrol signature = test: Connectivity Map query with the celastrol signature; type: cell-based, human; set-up: key to celastrol score (connectivity score): connectivity score, based on Kolmogorov-Smirnov statistic
Text: as §1, §2, §3, §4, §5, §6

[1] = enrichment of the gedunin signature (20 μM gedunin at 6 hours, LNCaP) in the compound's Connectivity Map profiles, 6 hr treatment
[2] = rank by gedunin score among 164 Connectivity Map compounds
[3] = enrichment of the celastrol signature (1.25 μM celastrol at 6 h, LNCaP) in the compound's Connectivity Map profiles, 6 hr treatment
[4] = rank by celastrol score among 164 Connectivity Map compounds

Row | Structure (SMILES) | gedunin score (connectivity score) (gedunin signature; [1]) | gedunin rank (gedunin signature; [2]) | celastrol score (connectivity score) (celastrol signature; [3]) | celastrol rank (celastrol signature; [4]) | further results
1 | Nc1c(O)cccc1C(=O)CC(N)C(=O)O (racemic) [3-hydroxy-DL-kynurenine] | 0 | 96 | 0 | 136 | –
2 | CCCCCCCCCCCCCCCC(=O)N[C@H](CN1CCOCC1)[C@H](O)c1ccccc1 (racemic) [DL-PPMP] | 0 | 110 | 0 | 138 | –
3 | Oc1cc(O)c2c(c1)OC(c1ccc(O)c(O)c1)C(O)C2 (single isomer, unassigned; (-)) [(−)-catechin] | 0.457 | 24 | 0 | 113 | –
4 | Oc1cccc2c(O)nccc12 [1,5-isoquinolinediol] | 0 | – | −0.608 | – | –
5 | O=CC[C@@H](O)[C@H](O)[C@H](O)CO [2-deoxy-D-glucose] | 0.378 | – | 0 | – | –
6 | NC(=O)c1cccc(N)c1 [3-aminobenzamide] | 0 | – | −0.587 | – | –
7 | O=C1NC(=O)c2cc(Nc3ccccc3)c(Nc3ccccc3)cc21 [4,5-dianilinophthalimide] | 0 | – | 0 | – | –
8 | CCCCC/C=C/C=C1/C(=O)C=C[C@@H]1C/C=C\CCCC(=O)O [15-delta prostaglandin J2] | 0.565 | 9 | 0.76 | 7 | –
9 | C[C@@H]1NC(=O)[C@H]2CCCN2C(=O)[C@H](CCCCCC(=O)[C@@H]2CO2)NC(=O)[C@@H](C)NC1=O [HC toxin] | 0.526 | 15 | 0 | 90 | –
10 | CC(=O)OCOC(c1ccc2ccccc2c1)P(=O)(OCOC(C)=O)OCOC(C)=O (stereo not drawn) [HNMPA-(AM)3] | 0.365 | 36 | 0 | 103 | –
11 | O=c1cc(N2CCOCC2)oc2c(-c3ccccc3)cccc12 [LY-294002] | 0 | – | −0.512 | – | –
12 | CC(C)C[C@@H](C=O)NC(=O)[C@H](CC(C)C)NC(=O)[C@H](CC(C)C)NC(=O)OCc1ccccc1 [MG-132] (Cbz-Leu-Leu-Leu-aldehyde) | 0.912 | – | 0.902 | – | –
13 | CC(C)c1ccc2c(c1)c(SC(C)(C)C)c(CC(C)(C)C(=O)O)n2Cc1ccc(Cl)cc1 [MK-886] | −0.336 | 155 | 0 | 94 | –
14 | O=C(O)c1ccccc1Nc1ccccc1 [N-phenylanthranilic acid] | −0.472 | – | 0 | – | –
15 | Cc1nc2c(O)cccc2c(=O)[nH]1 [NU-1025] | −0.222 | 152 | −0.362 | 156 | –
16 | CS(=O)(=O)c1ccc(-n2nc(C(F)(F)F)cc2-c2ccc(F)cc2)cc1 [SC-58125] | 0.09 | – | −0.112 | – | –
17 | C/C(=C\c1ccc(C(=O)O)cc1)c1ccc2c(c1)C(C)(C)CCC2(C)C [TTNPB] | 0.095 | 74 | 0 | 97 | –
18 | N#CC(=C(N)Sc1ccccc1)C(C#N)=C(N)Sc1ccccc1 [U0125] | 0 | 122 | 0 | 106 | –
19 | C[C@@H](N)[C@H]1CC[C@H](C(=O)Nc2ccncc2)CC1 [Y-27632] | −0.353 | – | 0 | – | –
20 | CC(=O)Oc1ccccc1C(=O)O [acetylsalicylic acid] | 0 | – | 0.154 | – | –

Row | Structure (SMILES) | gedunin score (connectivity score) (gedunin signature; [1]) | gedunin rank (gedunin signature; [2]) | celastrol score (connectivity score) (celastrol signature; [3]) | celastrol rank (celastrol signature; [4]) | further results
21 | C[C@]12CC[C@@H]3c4ccc(O)cc4CC[C@H]3[C@@H]1CC[C@H]2O [alpha-estradiol] | 0.045 | – | −0.066 | – | –
22 | CN(C)CCC=C1c2ccccc2CCc2ccccc21 [amitriptyline] | 0 | – | 0 | – | –
23 | CCCCC/C=C\C/C=C\C/C=C\C/C=C\CCCC(=O)O [arachidonic acid] | −0.222 | – | 0 | – | –
24 | Cn1cnc([N+](=O)[O-])c1Sc1ncnc2nc[nH]c12 [azathioprine] | 0.361 | – | 0.552 | – | –
25 | NC(CO)C(=O)NNCc1ccc(O)c(O)c1O (stereo not drawn) [benserazide] | −0.441 | – | 0 | – | –
26 | Cc1ccc2c(c1)C(=O)C1(O)CCN(c3ccccc3)C1=N2 (stereo not drawn) [blebbistatin] | 0 | 107 | 0 | 87 | –
27 | CCCC(=O)Nc1ncnc2c1ncn2[C@@H]1O[C@@H]2COP(=O)(O)O[C@H]2[C@H]1OC(=O)CCC [bucladesine] | −0.144 | – | 0 | – | –
28 | O=C(/C=C/c1ccc(O)c(O)c1)c1ccc(O)cc1O [butein] | 0.45 | – | 0.295 | – | –
29 | Clc1ccc(C(c2ccc(Cl)cc2)n2cc[n+](CC(OCc3ccc(Cl)cc3Cl)c3ccc(Cl)cc3Cl)c2)cc1 (stereo not drawn) [calmidazolium] | 0.619 | – | 0.334 | – | –
30 | NC(=O)N1c2ccccc2C=Cc2ccccc21 [carbamazepine] | 0.407 | – | 0.339 | – | –
31 | Cc1ccc(-c2cc(C(F)(F)F)nn2-c2ccc(S(N)(=O)=O)cc2)cc1 [celecoxib] | 0.114 | – | −0.01 | – | –
32 | CN(C)CCCN1c2ccccc2Sc2ccc(Cl)cc21 [chlorpromazine] | 0.218 | – | 0.08 | – | –
33 | CCCNC(=O)NS(=O)(=O)c1ccc(Cl)cc1 [chlorpropamide] | 0 | – | 0 | – | –
34 | CCOC(=O)C(C)(C)Oc1ccc(Cl)cc1 [clofibrate] | 0 | – | 0 | – | –
35 | Clc1ccccc1C(c1ccccc1)(c1ccccc1)n1ccnc1 [clotrimazole] | 0.577 | – | 0.557 | – | –
36 | [Cl][Co][Cl] [cobalt chloride] | 0.1 | 72 | 0.269 | 48 | –
37 | COc1cc2c(c(OC)c1OC)-c1ccc(OC)c(=O)cc1[C@@H](NC(C)=O)CC2 [colchicine] | 0.192 | – | 0.391 | – | –
38 | C=C[C@@]1(C)CC(=O)[C@]2(O)[C@@]3(C)[C@@H](O)CCC(C)(C)[C@@H]3[C@H](O)[C@H](OC(C)=O)[C@@]2(C)O1 [colforsin] | 0 | – | 0 | – | –
39 | O=S(=O)([O-])[O-].[Cu+2] [copper sulfate] | – | – | – | – | gedunin rank (gedunin signature): 78; gedunin score (connectivity score) (gedunin signature): 0.066; celastrol rank (celastrol signature): 68; celastrol score (connectivity score) (celastrol signature): 0.113
40 | CN1CCN(CCCN2c3ccccc3Sc3ccc(C(F)(F)F)cc32)CC1 [trifluoperazine, reference compound] | 0.559 | – | – | – | –
